Measured values taken from publication PMC3028519 (Toxicology and applied pharmacology, 2010).
Where two headings read alike, the source gives them in different places.

Key:
Disposition of Hg = conditions: for renal burden of Hg (total renal mass): HgCl2 0.5 μmol/kg (+1.25 μmol/kg Cys) or CH3HgCl 5 μmol/kg (+12.5 μmol/kg Cys); for administered dose present in blood / renal burden of Hg: rats, strain not stated (discussion); for cortical concentration of Hg, TR− rats compared with corresponding control rats / cortical concentration of Hg, compared with rats of the same strain exposed to HgCl2 or CH3HgCl alone: renal cortex; for distribution of Hg in blood between plasma and cellular components: each group of rats
human MRP2 = human MRP2 (Homo sapiens, UniProt Q92887); format: in vitro ADME; conditions: 37°C, inside-out Sf9 membrane vesicles
[1] = both control and TR− rats, 24 h, data not shown
[2] = control (Wistar) rats, i.v., 24 h

human MRP2, sequence (Q92887 whole entry): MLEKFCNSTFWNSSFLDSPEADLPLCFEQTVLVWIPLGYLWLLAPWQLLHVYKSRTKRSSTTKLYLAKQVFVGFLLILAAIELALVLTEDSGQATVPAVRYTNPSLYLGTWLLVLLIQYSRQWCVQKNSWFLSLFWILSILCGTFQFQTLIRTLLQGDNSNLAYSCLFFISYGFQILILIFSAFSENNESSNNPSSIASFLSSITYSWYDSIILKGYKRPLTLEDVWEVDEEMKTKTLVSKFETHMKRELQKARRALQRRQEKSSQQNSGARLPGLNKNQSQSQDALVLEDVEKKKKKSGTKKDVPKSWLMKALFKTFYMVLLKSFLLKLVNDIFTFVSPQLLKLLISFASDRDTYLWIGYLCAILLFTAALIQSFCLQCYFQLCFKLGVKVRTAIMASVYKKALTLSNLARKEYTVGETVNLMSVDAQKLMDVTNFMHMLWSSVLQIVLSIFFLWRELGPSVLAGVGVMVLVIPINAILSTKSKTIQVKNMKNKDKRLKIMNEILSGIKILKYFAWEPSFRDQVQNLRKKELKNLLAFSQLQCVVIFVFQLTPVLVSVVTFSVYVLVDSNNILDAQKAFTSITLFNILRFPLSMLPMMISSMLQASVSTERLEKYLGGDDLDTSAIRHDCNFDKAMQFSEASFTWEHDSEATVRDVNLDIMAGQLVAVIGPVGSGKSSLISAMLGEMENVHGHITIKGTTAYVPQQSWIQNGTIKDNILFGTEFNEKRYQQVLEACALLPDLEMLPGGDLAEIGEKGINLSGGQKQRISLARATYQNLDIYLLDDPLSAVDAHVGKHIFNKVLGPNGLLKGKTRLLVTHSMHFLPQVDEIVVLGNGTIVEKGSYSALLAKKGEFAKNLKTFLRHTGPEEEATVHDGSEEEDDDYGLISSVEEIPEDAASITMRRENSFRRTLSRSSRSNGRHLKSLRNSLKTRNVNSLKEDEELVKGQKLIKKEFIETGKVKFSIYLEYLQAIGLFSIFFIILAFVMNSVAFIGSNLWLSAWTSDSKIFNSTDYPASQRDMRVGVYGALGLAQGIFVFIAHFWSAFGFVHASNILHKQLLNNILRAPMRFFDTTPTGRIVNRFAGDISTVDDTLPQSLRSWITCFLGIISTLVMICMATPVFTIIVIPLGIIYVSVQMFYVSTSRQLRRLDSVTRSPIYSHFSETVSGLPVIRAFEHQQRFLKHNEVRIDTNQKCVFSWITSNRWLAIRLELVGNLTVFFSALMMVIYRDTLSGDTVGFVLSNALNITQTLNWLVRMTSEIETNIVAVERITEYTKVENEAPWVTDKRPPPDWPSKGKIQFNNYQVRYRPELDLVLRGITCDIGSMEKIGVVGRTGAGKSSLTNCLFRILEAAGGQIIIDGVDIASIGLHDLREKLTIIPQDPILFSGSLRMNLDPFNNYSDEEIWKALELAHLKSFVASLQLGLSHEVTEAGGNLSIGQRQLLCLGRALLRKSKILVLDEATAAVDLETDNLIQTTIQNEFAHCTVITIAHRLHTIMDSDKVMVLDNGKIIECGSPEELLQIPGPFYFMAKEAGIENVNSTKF

| Molecule | hepatic burden of Hg (Disposition of Hg; TR− rats, i.v., 24 h) | renal burden of Hg (total renal mass) (Disposition of Hg; TR− rats, i.v., 24 h) | renal burden of Hg (total renal mass) (Disposition of Hg; [2]) | urinary excretion of Hg in 24 h (Disposition of Hg; control rats, i.v.) | amount of Hg in blood, TR− rats compared with corresponding control rats (Disposition of Hg; i.v., 24 h) | renal burden of Hg, TR− rats compared with corresponding control rats (Disposition of Hg; i.v., 24 h) | administered dose present in blood (Disposition of Hg; i.v., 24 h) | renal burden of Hg (Disposition of Hg; i.v., 24 h) | cortical concentration of Hg, TR− rats compared with corresponding control rats (Disposition of Hg; i.v., 24 h) | uptake into MRP2 vesicles compared with control vesicles (human MRP2; 5 μM mercuric conjugate) | concentration of Hg in the outer stripe of the outer medulla, compared with rats of the same strain exposed to HgCl2 or CH3HgCl alone (Disposition of Hg; TR− rats, i.v., 24 h) | cortical concentration of Hg, compared with rats of the same strain exposed to HgCl2 or CH3HgCl alone (Disposition of Hg; TR− rats, i.v., 24 h) | concentration of Hg in the outer stripe of the outer medulla, compared with rats of the same strain exposed to HgCl2 or CH3HgCl alone (Disposition of Hg; control rats, i.v., 24 h) | hepatic burden of Hg (Disposition of Hg; control rats, i.v., 24 h) | cortical concentration of Hg, compared with rats of the same strain exposed to HgCl2 or CH3HgCl alone (Disposition of Hg; control rats, i.v., 24 h) | distribution of Hg in blood between plasma and cellular components (Disposition of Hg; 24 h, data not shown) | also measured |
| --- | --- | --- | --- | --- | --- | --- | --- | --- | --- | --- | --- | --- | --- | --- | --- | --- | --- |
| [CH3][Hg][Cl] [CH3HgCl, methylmercuric chloride] | about 14 % of the dose | approximately 5 % of the administered dose | approximately 5 % of the administered dose | approximately 0.5 % of the administered dose | did not significantly alter | No significant differences | over 40% | about 5 % of the dose | similar | – | – | – | – | – | – | – | hematological burden of Hg associated with cellular components of blood (Disposition of Hg; [1]): approximately 99%; hematological burden of Hg present in plasma (Disposition of Hg; [1]): ~1%; hepatic burden of Hg, TR− rats compared with corresponding control rats (Disposition of Hg; i.v., 24 h): two-fold greater; urinary excretion of Hg, control rats compared with corresponding TR− rats (Disposition of Hg; i.v., 24 h): not significantly different |
| N[C@@H](CS)C(=O)[O-].N[C@@H](CS)C(=O)[O-].[Hg+2] [Cys-S-Hg-S-Cys, Cysteine-S-conjugate of HgCl2] | – | – | – | – | slightly, but not significantly, greater | more Hg was detected in kidneys of TR^− rats | – | ~70 % of the dose | tended to be greater | significantly greater in MRP2 vesicles than in control vesicles | not significantly different | significant increase | not significantly different | ~5 % of the administered dose | significant increase | distributed evenly between plasma and cellular components | fecal excretion of Hg, compared with rats of the same strain exposed to HgCl2 or CH3HgCl alone (Disposition of Hg; TR− rats, i.v., 24 h): not significantly different; hematological burden of Hg, compared with rats of the same strain exposed to HgCl2 or CH3HgCl alone (Disposition of Hg; TR− rats, i.v., 24 h): significantly lower; hepatic burden of Hg, compared with rats of the same strain exposed to HgCl2 or CH3HgCl alone (Disposition of Hg; TR− rats, i.v., 24 h): not significantly different; renal burden of Hg, compared with rats of the same strain exposed to HgCl2 or CH3HgCl alone (Disposition of Hg; TR− rats, i.v., 24 h): significantly greater than that of corresponding rats treated with HgCl2; urinary excretion of Hg, compared with rats of the same strain exposed to HgCl2 or CH3HgCl alone (Disposition of Hg; TR− rats, i.v., 24 h): not significantly different; fecal excretion of Hg, compared with rats of the same strain exposed to HgCl2 or CH3HgCl alone (Disposition of Hg; control rats, i.v., 24 h): significantly greater than that of corresponding rats exposed to HgCl2 alone; hepatic burden of Hg, compared with rats of the same strain exposed to HgCl2 or CH3HgCl alone (Disposition of Hg; control rats, i.v., 24 h): increased significantly; renal burden of Hg, compared with rats of the same strain exposed to HgCl2 or CH3HgCl alone (Disposition of Hg; control rats, i.v., 24 h): significantly greater than that of corresponding rats treated with HgCl2; urinary excretion of Hg, compared with rats of the same strain exposed to HgCl2 or CH3HgCl alone (Disposition of Hg; control rats, i.v., 24 h): not significantly different |
| [Cl][Hg][Cl] [HgCl2, mercuric chloride] | ~6.5 % of the dose | 60 % of the administered dose | approximately 50 % of the administered dose | approximately 4 % of the administered dose | significantly greater | significantly different than that of corresponding control (Wistar) rats | 1-2% | approximately 50 % of the dose | tended to be greater | – | – | – | – | approximately 3.5 % of the administered dose | – | distributed evenly between plasma and cellular components | fecal excretion of Hg after 24 h (Disposition of Hg; TR− rats, i.v.): approximately 1.5 % of the administered dose; urinary excretion of Hg in 24 h (Disposition of Hg; TR− rats, i.v.): about 1.5 % of the administered dose; fecal excretion of Hg after 24 h (Disposition of Hg; control rats, i.v.): approximately 3 % of the administered dose |
| CCCCC/C=C\C\C=C/C=C/C=C/[C@@H](SC[C@H](NC(=O)CC[C@H](N)C(=O)O)C(=O)NCC(=O)O)[C@@H](O)CCCC(=O)O [LTC4, Leukotriene C4, reference compound] | – | – | – | – | – | – | – | – | – | – | – | – | – | – | – | – | uptake into MRP2 vesicles compared with control vesicles (human MRP2; 50 nM LTC4, 2.5 min): significantly greater in MRP2 vesicles than in control vesicles |
| Cysteine-S-conjugate of CH3HgCl [Cys-S-CH3Hg] | – | – | – | – | – | – | – | – | no significant difference | significantly greater in MRP2 vesicles than in control vesicles | significantly greater | significantly greater | significantly greater | – | significantly greater | – | – |
